Results: publication PMC6254837, “Investigating Biological Activity Spectrum for Novel Styrylquinazoline Analogues” (Molecules, 2009)
≈ marks a conversion by molar mass, not a printed value. Where “and” joins values, the source holds several entries; their conditions need not be identical. Identical values can stand only once. Like-named read-outs stand apart in the source and are kept apart here.

Experiments:
[1] = tested on: Mycobacterium avium complex CIT19/06; assay: In vitro antimycobacterial evaluation (alamarBlue, 96 well plate); type: cell-based; conditions: 120 h, read-out: MIC/IC90 M. avium complex
M. kansasii CIT11/06 = assay: as above; type: cell-based; conditions: Mycobacterium kansasii, CIT11/06, 120 h, read-out: MIC/IC90 M. kansasii
M. smegmatis MC2155 = assay: as above; type: cell-based; conditions: Mycolicibacterium smegmatis
[2] = Lipophilicity HPLC determination (capacity factor k / calculated log k); type: physicochemical; conditions: RP-HPLC, C18, MeOH/H2O 55:45, non-buffered, isocratic
Source text: Some groups have used a C18 chromatographic column with methanol-water mobile phases to obtain log kw, i.e., the retention factor extrapolated to 0% organic modifier, as an alternative to log P [50]. The log kw is obtained by performing several measurements with various ratios of water/organic solvent. Nevertheless determination of log kw has some disadvantages in that it is time consuming due to the various measurements that need to be undertaken before calculation of log kw. The main reason for the measurement is that it is more convenient to perform a systematic study of log k of various heteroaromatic compounds using mobile phases containing around 50% methanol due to various intramolecular interactions between heteroatoms and substituents. Therefore this study was performed using methanol/water (55:45) as the mobile phase. The conditions (non-buffered mobile phase) were chosen with respect to conditions of biological evaluations, which are performed mostly under neutral conditions (pH ~ 7). The lipophilicity data can be strongly influenced by intramolecular interactions under the applied chromatographic conditions which were investigated in the paper. The HPLC separation module Waters Alliance 2695 XE and Waters Photodiode Array Detector 2996 (Waters Corp., Milford, MA, U.S.A.) were used. The chromatographic column Symmetry® C18 5 μm, 4.6 × 250 mm, Part No. WAT054275, (Waters Corp., Milford, MA, U.S.A.) was used. The HPLC separation process was monitored by Millennium32® Chromatography Manager Software, Waters 2004 (Waters Corp.). The mixture of MeOH p.a. (55.0%) and H2O-HPLC – Mili-Q Grade (45.0%) was used as a mobile phase. The total flow of the column was 0.9 mL/min, injection 30 μL, column temperature 30 °C and sample temperature 10 °C. The detection wavelength 210 nm was chosen. The KI methanolic solution was used for the dead time (tD) determination. Retention times (tR) were measured in minutes. The capacity factors k were calculated using the Millennium32® Chromatography Manager Software according to formula k = (tR - tD)/tD, where tR is the retention time of the solute, whereas tD denotes the dead time obtained via an unretained analyte.

M. absessus CIT21/06 = assay: In vitro antimycobacterial evaluation (alamarBlue, 96 well plate); type: cell-based; conditions: read-out: MIC/IC90 M. absessus
[3] = tested on: photosynthetic electron transport (PET) in spinach chloroplasts; assay: Inhibition of photosynthetic electron transport (PET) in spinach chloroplasts, DCPIP photoreduction; type: biochemical, Spinacia oleracea L.; conditions: phosphate buffer pH 7.2, DMSO up to 4%
Method: Chloroplasts were prepared from spinach (Spinacia oleracea L.) according to Masarovicova and Kralova. The inhibition of photosynthetic electron transport (PET) in spinach chloroplasts was determined spectrophotometrically (Genesys 6, Thermo Scientific, U.S.A.) using an artificial electron acceptor 2,6-dichlorophenol-indophenol (DCIPP) according to Kralova et al. and the rate of photosynthetic electron transport was monitored as a photoreduction of DCPIP. The measurements were carried out in phosphate buffer (0.02 mol/L, pH 7.2) containing sucrose (0.4 mol/L), MgCl2 (0.005 mol/L) and NaCl (0.015 mol/L). The chlorophyll content was 30 mg/L in these experiments and the samples were irradiated (~100 W/m^2) from 10 cm distance with a halogen lamp (250 W) using a 4 cm water filter to prevent warming of the samples (suspension temperature 22 °C). The studied compounds were dissolved in DMSO due to their limited water solubility. […] The inhibitory efficiency of the studied compounds was expressed by IC50 values, i.e. by molar concentration of the compounds causing 50% decrease in the oxygen evolution rate relative to the untreated control.

[4] = tested on: photosynthetic electron transport (PET) in spinach chloroplasts; parameters: method as in earlier work; conditions: standard, read-out: PET inhibition IC50; cited from earlier work
[5] = Middlebrook broth, 37 °C five days
[6] = MC2155, Middlebrook broth, 37 °C overnight, read-out: MIC/IC90 M. smegmatis
[7] = Middlebrook broth, 37 °C overnight

| SMILES | MIC [1] | MIC (M. kansasii CIT11/06) | MIC (M. smegmatis MC2155; MC2155, read-out: MIC/IC90 M. smegmatis) | log k [2] | MIC (M. absessus CIT21/06) | MIC [1, 5] | IC50 [3] | MIC (M. kansasii CIT11/06; [5]) | MIC (M. smegmatis MC2155; [6]) | MIC (M. absessus CIT21/06; [7]) | IC50 [4] |
| --- | --- | --- | --- | --- | --- | --- | --- | --- | --- | --- | --- |
| Cc1nc2ccccc2c(=O)[nH]1 [Compound 1, 2-Methylquinazolin-4(3H)-one] | > 300 µg/mL | > 300 µg/mL | > 300 µg/mL | 0.1170 | > 300 µg/mL | – | – | – | – | – | – |
| Cc1nc2ccccc2c(=O)n1CCO [Compound 2, 3-(2-Hydroxyethyl)-2-methylquinazolin-4(3H)-one] | – | – | – | 0.7047 | – | > 300 µg/mL | 362 µM | > 300 µg/mL | > 300 µg/mL | > 300 µg/mL | – |
| O=c1[nH]c(/C=C/c2ccccc2)nc2ccccc12 [Compound 3a, 2-(E)-Styrylquinazolin-4(3H)-one] | – | – | – | 1.1148 | – | > 300 µg/mL | – | > 300 µg/mL | > 300 µg/mL | > 300 µg/mL | – |
| COc1ccccc1/C=C/c1nc2ccccc2c(=O)[nH]1 [Compound 3b, 2-[(E)-2-(2-Methoxyphenyl)vinyl]quinazolin-4(3H)-one] | – | – | – | 1.1509 | – | > 100 µg/mL | – | > 100 µg/mL | > 100 µg/mL | > 100 µg/mL | – |
| COc1cccc(/C=C/c2nc3ccccc3c(=O)[nH]2)c1 [Compound 3c, 2-[(E)-2-(3-Methoxyphenyl)vinyl]quinazolin-4(3H)-one] | – | – | – | 1.1837 | – | > 100 µg/mL | – | > 100 µg/mL | > 100 µg/mL | > 100 µg/mL | – |
| COc1ccc(/C=C/c2nc3ccccc3c(=O)[nH]2)cc1 [Compound 3d, 2-[(E)-2-(4-Methoxyphenyl)vinyl]quinazolin-4(3H)-one] | – | – | – | 1.1351 | – | > 100 µg/mL | 693 µM | > 100 µg/mL | > 100 µg/mL | > 100 µg/mL | – |
| COc1ccc(/C=C/c2nc3ccccc3c(=O)[nH]2)c(OC)c1 [Compound 3e, 2-[(E)-2-(2,4-Dimethoxyphenyl)vinyl]quinazolin-4(3H)-one] | – | – | – | 1.1982 | – | 80 µg/mL (≈ 259 µM) | 391 µM | 20 µg/mL (≈ 64.9 µM) | > 100 µg/mL | 80 µg/mL (≈ 259 µM) | – |
| O=c1[nH]c(/C=C/c2cccc(Cl)c2)nc2ccccc12 [Compound 3f, 2-[(E)-2-(3-Chlorophenyl)vinyl]quinazolin-4(3H)-one] | – | – | – | 1.5059 | – | > 300 µg/mL | 1030 µM | > 300 µg/mL | > 300 µg/mL | > 300 µg/mL | – |
| O=c1[nH]c(/C=C/c2ccccc2Br)nc2ccccc12 [Compound 3g, 2-[(E)-2-(2-Bromophenyl)vinyl]quinazolin-4(3H)-one] | – | – | – | 1.4830 | – | > 100 µg/mL | – | > 100 µg/mL | > 100 µg/mL | > 100 µg/mL | – |
| O=c1[nH]c(/C=C/c2cccc(Br)c2)nc2ccccc12 [Compound 3h, 2-[(E)-2-(3-Bromophenyl)vinyl]quinazolin-4(3H)-one] | – | – | – | 1.5904 | – | > 100 µg/mL | 561 µM | > 100 µg/mL | > 100 µg/mL | > 100 µg/mL | – |
| O=c1[nH]c(/C=C/c2ccc(Br)cc2)nc2ccccc12 [Compound 3i, 2-[(E)-2-(4-Bromophenyl)vinyl]quinazolin-4(3H)-one] | – | – | – | 1.5927 | – | > 100 µg/mL | 665 µM | > 100 µg/mL | > 100 µg/mL | > 100 µg/mL | – |
| O=Cc1ccc(/C=C/c2nc3ccccc3c(=O)[nH]2)cc1 [Compound 3j, 2-[(E)-2-(4-Carbaldehydephenyl)vinyl]quinazolin-4(3H)-one] | – | – | – | 0.8005 | – | – | – | – | – | – | – |
| O=c1[nH]c(/C=C/c2ccc(O)c(O)c2O)nc2ccccc12 [Compound 3k, 2-[(E)-2-(2,3,4-Trihydroxyphenyl)vinyl]quinazolin-4(3H)-one] | – | – | – | 0.5510 | – | – | – | – | – | – | – |
| Clc1nc(/C=C/c2ccccc2)nc2ccccc12 [Compound 4a, 4-Chloro-2-(E)-styrylquinazoline] | – | – | – | 1.1088 | – | > 100 µg/mL | 285 µM | > 100 µg/mL | > 100 µg/mL | > 100 µg/mL | – |
| COc1ccccc1/C=C/c1nc(Cl)c2ccccc2n1 [Compound 4b, 4-Chloro-2-[(E)-2-(2-methoxyphenyl)vinyl]quinazoline] | – | – | – | 1.1497 | – | 80 µg/mL (≈ 270 µM) | – | 60 µg/mL (≈ 202 µM) | > 100 µg/mL | 80 µg/mL (≈ 270 µM) | – |
| COc1cccc(/C=C/c2nc(Cl)c3ccccc3n2)c1 [Compound 4c, 4-Chloro-2-[(E)-2-(3-methoxyphenyl)vinyl]quinazoline] | – | – | – | 1.1827 | – | > 100 µg/mL | 303 µM | 60 µg/mL (≈ 202 µM) | > 100 µg/mL | > 100 µg/mL | – |
| COc1ccc(/C=C/c2nc(Cl)c3ccccc3n2)cc1 [Compound 4d, 4-Chloro-2-[(E)-2-(4-methoxyphenyl)vinyl]quinazoline] | – | – | – | 1.1337 | – | > 100 µg/mL | 390 µM | > 100 µg/mL | > 100 µg/mL | > 100 µg/mL | – |
| COc1ccc(/C=C/c2nc(Cl)c3ccccc3n2)c(OC)c1 [Compound 4e, 4-Chloro-2-[(E)-2-(2,4-dimethoxyphenyl)vinyl]quinazoline] | – | – | – | 1.1953 | – | > 100 µg/mL | 508 µM | > 100 µg/mL | > 100 µg/mL | > 100 µg/mL | – |
| CN(C)C(=O)Nc1ccc(Cl)c(Cl)c1 [DCMU, 3-(3,4-dichlorophenyl)-1,1-dimethylurea] | – | – | – | – | – | – | – | – | – | – | ~1.9 µM and 1.9 µM |
| NNC(=O)c1ccncc1 [INH, isoniazid, reference compound] | – | – | – | – | – | < 10 µg/mL | – | < 10 µg/mL | 39 µg/mL (≈ 284 µM) | > 100 µg/mL | – |
